Laboratory results taken from patent US20190091248A1, “AGENT FOR INCREASING INTESTINAL BUTYRIC ACID AND PROLIFERATION AGENT FOR BUTYRIC ACID-PRODUCING BACTERIA” (B FOOD SCIENCE CO., LTD., priority 2016, published 2019).

Tests used:
[1] = tested on: The genus Bifidobacterium; assay: Real-time PCR of 16S rDNA copy number in cecal contents upon intake of 1-kestose; format: in vivo, SD rats; conditions: Group E
Protocol: (§1) The amounts of the following 4 microorganisms in the cecal contents of rats in Groups A and E described in Example 1 (1) were measured by real-time PCR.
1. The genus Bifidobacterium,
(§2) Specifically, the cecal contents of Groups A and E were disrupted with the bead beating system “FastPrep FP100A” (MP Biomedicals, LLC.). Subsequently, genomic DNA was extracted with the nucleic acid extraction instrument “Magtration® System 12GC” and its exclusive reagent “MagDEA® DNA 200” (Precision System Science Co., Ltd.) according to the instructions. Using this genomic DNA as a template, the real-time PCR was performed with primers specific for the 16S rDNAs of the aforementioned 4 microorganisms, the real-time PCR reagent “SYBR® Premix Ex Taq II (Tli RNaseH Plus)” (Takara), and the real-time PCR device “Rotor-Gene Q” (QIAGEN N.V.) and the copy numbers of the 16S rDNA from each microorganism per 1 g of the cecal contents were determined. The means and standard deviation of the copy numbers were calculated for each group and illustrated in bar graphs.
(§3) The sequences of the primers specific for 16S rDNA of each microorganism are listed below.
(§4) The standard curve was made from the result of real-time PCR for each microorganism under the same conditions using a plasmid DNA in which a part of the following sequence is incorporated as a template.
1. […]

The genus Lactobacillus = assay: as above; format: in vivo, SD rats
Protocol: as §1
3. The genus Lactobacillus
as §2, §3, §4
3. […]

[2] = tested on: short chain fatty acids in cecal contents; assay: Amount of intestinal short chain fatty acid in cecal contents upon intake of 1-kestose (GC/MS); format: in vivo, SD rats; conditions: for concentration of butyric acid in cecal contents: 30 days ad libitum; for amount of butyric acid in cecal contents: 30 days, calculated from concentration, Group A 781.14 μg
Protocol: (1) Breeding of Rats with Giving Oral Intake of 1-Kestose
The feeds containing 0, 0.5, 1.0, 2.5, and 5% by mass of 1-kestose were prepared by CLEA Japan, Inc. on commission. The composition of the feeds is described below. 40 SD rats (Japan SLC, Inc.) were divided into 5 groups of 8 animals and designated as Groups A to E. The rats were maintained for 30 days with ad libitum feeding of the feed without 1-kestose to Group A and of the ones with 1-kestose to Groups B to E, respectively. The rats were maintained under conditions at 23±1° C. in temperature with 12 hours of light periods (from 8:00 to 20:00) and 12 hours of dark periods (from 20:00 to 8:00).
[Composition (in % by mass) of feeds] Cornstarch 39.7486, milk casein 20, pregelatinized cornstarch 13.2, granulated sugar and/or 1-kestose (99% by mass in purity, B Food Science Co., Ltd.) 10, purified soybean oil 7, cellulose powder 5, mineral mixture 3.5, vitamin mixture 1, L-cystine 0.3, choline bitartrate 0.25, tert-butylhydroquinone 0.0014.
The rats in each group described in Example 1 (1) were dissected and their ceca were extracted. The contents of the ceca were collected and weighed. The concentrations of short chain fatty acids (butyric acid, propionic acid, isobutyric acid, acetic acid, isovaleric acid, and valeric acid) in the cecal contents were measured with a gas chromatography-mass spectrometer (GC/MS). The amounts of the short chain fatty acids in the cecal contents were calculated from the results of the measurement of the short chain fatty acid concentrations. Subsequently, the means of concentrations and amounts of short chain fatty acids for each group were calculated and shown in bar graphs. The results are illustrated in FIGS. 1 to 3.

[3] = Food processing and ingredients, Vol. 49, No. 12, p. 9, 2014; cited from earlier work
[4] = tested on: Clostridium cluster-XIVa and Clostridium cluster-XIVb (a group of butyric acid-producing bacteria); assay: Real-time PCR of 16S rDNA copy number in cecal contents upon intake of 1-kestose; format: in vivo, SD rats
Protocol: as §1
2. Clostridium cluster-XIVa and Clostridium cluster-XIVb (a group of butyric acid-producing bacteria),
as §2, §3, §4
2. Clostridium clusters-XIVa and -XIVb (a group of butyric acid-producing bacteria); 16S rDNA sequence (SEQ ID NO: 10) of Clostridium clostridioforme JCM1291T

Akkermansia muciniphila = assay: as above; format: in vivo, SD rats
Protocol: as §1
4. Akkermansia muciniphila
as §2, §3, §4
4. […]

[5] = tested on: fatty degeneration and inflammation in the liver by the intake of high-fat meals; conditions: oral administration, 0.02 g/kg body weight per day; cited from earlier work
[6] = tested on: LIM1215, human colorectal cancer cells; conditions: final concentration of 1 mmol/L; cited from earlier work
[7] = tested on: childhood diabetes model rat; conditions: intraperitoneal, 500 mg/kg of body weight per day (in terms of the dose of sodium butyrate); cited from earlier work
[8] = tested on: ulcerative colitis model rats induced by dextran sulfate sodium (DSS); conditions: injection into the intestine; cited from earlier work
[9] = tested on: obesity induced by high-fat meals; conditions: cited from earlier work
[10] = Group B: feed with 0.5% by mass 1-kestose
[11] = Group C: feed with 1.0% by mass 1-kestose
[12] = Group D: feed with 2.5% by mass 1-kestose
[13] = Group E: feed with 5% by mass 1-kestose
[14] = Groups B, C, D and E, cecal contents

In the case of `OC[C@H]1O[C@@](CO)(OC[C@@]2(O[C@H]3O[C@H](CO)[C@@H](O)[C@H](O)[C@H]3O)O[C@H](CO)[C@@H](O)[C@@H]2O)[C@@H](O)[C@@H]1O` [1-kestose], the “copy number of 16S rDNA from the genus Bifidobacterium in comparison with Group A” value [1] is reported as “significantly increased”, the “copy number of 16S rDNA from Lactobacillus, Group E versus Group A” value (The genus Lactobacillus) is reported as “did not have significant difference” and the “increase of butyric acid amount relative to Group A” value [2, 10] is reported as “approximately 1.4 times of that in Group A”. For the same molecule, the “increase of butyric acid concentration relative to Group A” value [2, 10] was “approximately 1.4 times of that in Group A”, the “concentration of butyric acid in cecal contents” value (“concentration of butyric acid” for short) ([2]; Group B: feed with 0.5% by mass 1-kestose, daily intake 0.27 g/kg body weight, Group A (no 1-kestose) 205.86 μg/g) was 288.09 µg/g and the “amount of butyric acid in cecal contents” value [2, 10] was 1069.37 µg. The “increase of butyric acid amount relative to Group A” value [2, 11] was “approximately 1.4 times of that in Group A”, the “increase of butyric acid concentration relative to Group A” value [2, 11] was “approximately 1.5 times of that in Group A” and the “concentration of butyric acid” value ([2]; Group C: feed with 1.0% by mass 1-kestose, Group A 205.86 μg/g) was 314.59 µg/g. For the same molecule, the “amount of butyric acid in cecal contents” value [2, 11] was 1107.92 µg, the “increase of butyric acid amount relative to Group A” value [2, 12] was “approximately 3.6 times of that in Group A” and the “increase of butyric acid concentration relative to Group A” value [2, 12] was “approximately 3.7 times of that in Group A”. The “concentration of butyric acid” value ([2]; Group D: feed with 2.5% by mass 1-kestose, Group A 205.86 μg/g) was 754.17 µg/g, the “amount of butyric acid in cecal contents” value [2, 12] was 2891.65 µg and the “increase of butyric acid amount relative to Group A” value [2, 13] was “approximately 14.5 times of that in Group A”. For the same molecule, the “increase of butyric acid concentration relative to Group A” value [2, 13] was “approximately 10 times of that in Group A”, the “concentration of butyric acid” value ([2]; Group E: feed with 5% by mass 1-kestose, 1.34 g/kg body weight, Group A 205.86 μg/g) was 2005.26 µg/g and the “amount of butyric acid in cecal contents” value [2, 13] was 11943.88 µg. For the same molecule, the “concentrations and amounts of acetic acid in comparison with Group A” value [2, 14] was “significantly increased”, the “concentrations and amounts of isobutyric acid in comparison with Group A” value [2, 14] was “significantly decreased” and the “concentrations and amounts of isovaleric acid in comparison with Group A” value [2, 14] was “not significantly different”. For the same molecule, the “concentrations and amounts of propionic acid in comparison with Group A” value [2, 14] was “not significantly different”, the “concentrations and amounts of valeric acid in comparison with Group A” value [2, 14] was “significantly decreased” and the “concentrations and amounts of butyric acid in comparison with Group A” value ([2]; any of Groups B to E (0.5 to 5% by mass 1-kestose in feed)) was “markedly increased”. For the same molecule, the “toxicity in mutagenicity, acute toxicity, subchronic toxicity, and chronic toxicity tests” value [3] was “no toxicity”, the “copy number of 16S rDNA from the group of butyric acid-producing bacteria relative to Group A” value ([4]; Group E) was “approximately 5 times of that in Group A” and the “copy number of 16S rDNA from the group of butyric acid-producing bacteria, comparison with Group A in words” value ([4]; Group E) was “significantly increased”. For the same molecule, the “copy number of 16S rDNA from Clostridium cluster XIV (a group of butyric acid-producing bacteria)” value ([4]; Group E (5% by mass 1-kestose in feed, 30 days), Group A 5071250000) was 25287500000 per 1 g of the cecal contents and the “copy number of 16S rDNA from Akkermansia muciniphila, Group E versus Group A” value (Akkermansia muciniphila) was “did not have significant difference”.
For `CCCC(=O)O` [butyric acid], the “fatty degeneration and inflammation in the liver by the intake of high-fat meals” value [5] is listed as “suppress”, the “values of AST, ALT, cholesterol, LDL in blood, neutral fat and fasting blood sugar levels, and insulin resistance index (HOMA-IR)” value [5] is listed as “normalize” and the proliferation rate [6] is listed as “decrease”. The proliferation time [6] was “extend”, the “function and proliferation of β cells” value [7] was “improve” and the glucose homeostasis [7] was “improve”. The β cell death [7] was “decrease”, the inflammatory repair effect [8] was “significant inflammatory repair effect” and the “body weight and the body fat percentage” value ([9]; oral, 5 g/kg body weight per day (in terms of sodium butyrate), mice in which obesity has been induced by high-fat meals) was “reduce”. The “weight gain and increase of the body fat percentage by eating of high-fat meals” value ([9]; oral, 5 g/kg body weight per day (in terms of sodium butyrate), mice that are not obese) was “suppress”.
In the case of `CCCC(=O)[O-].[Na+]` [sodium butyrate], the “increase of body weight and increase of the body fat percentage” value ([9]; mice fed on high-fat meals into which 5% by mass is mixed) is listed as “suppressed”.
